Assays:
[1] = target: T1, human TMEM16A (TMEM16Aabc variant) (Homo sapiens, UniProt Q5XXA6, DEL476-501); experiment: Automated whole-cell patch clamp (Qpatch) TMEM16A potentiator assay in recombinant FRT cells; type: cell-based; details: for EC50: minimum n = 2; for activation at 3.33 µM: percentage increase of baseline TMEM16A current, minimum n = 2, read-out: % Potentiation @ 3.33 uM Avg
T1 sequence (Q5XXA6 with tags, fused parts or gaps isoform Q5XXA6-5 DEL539-564): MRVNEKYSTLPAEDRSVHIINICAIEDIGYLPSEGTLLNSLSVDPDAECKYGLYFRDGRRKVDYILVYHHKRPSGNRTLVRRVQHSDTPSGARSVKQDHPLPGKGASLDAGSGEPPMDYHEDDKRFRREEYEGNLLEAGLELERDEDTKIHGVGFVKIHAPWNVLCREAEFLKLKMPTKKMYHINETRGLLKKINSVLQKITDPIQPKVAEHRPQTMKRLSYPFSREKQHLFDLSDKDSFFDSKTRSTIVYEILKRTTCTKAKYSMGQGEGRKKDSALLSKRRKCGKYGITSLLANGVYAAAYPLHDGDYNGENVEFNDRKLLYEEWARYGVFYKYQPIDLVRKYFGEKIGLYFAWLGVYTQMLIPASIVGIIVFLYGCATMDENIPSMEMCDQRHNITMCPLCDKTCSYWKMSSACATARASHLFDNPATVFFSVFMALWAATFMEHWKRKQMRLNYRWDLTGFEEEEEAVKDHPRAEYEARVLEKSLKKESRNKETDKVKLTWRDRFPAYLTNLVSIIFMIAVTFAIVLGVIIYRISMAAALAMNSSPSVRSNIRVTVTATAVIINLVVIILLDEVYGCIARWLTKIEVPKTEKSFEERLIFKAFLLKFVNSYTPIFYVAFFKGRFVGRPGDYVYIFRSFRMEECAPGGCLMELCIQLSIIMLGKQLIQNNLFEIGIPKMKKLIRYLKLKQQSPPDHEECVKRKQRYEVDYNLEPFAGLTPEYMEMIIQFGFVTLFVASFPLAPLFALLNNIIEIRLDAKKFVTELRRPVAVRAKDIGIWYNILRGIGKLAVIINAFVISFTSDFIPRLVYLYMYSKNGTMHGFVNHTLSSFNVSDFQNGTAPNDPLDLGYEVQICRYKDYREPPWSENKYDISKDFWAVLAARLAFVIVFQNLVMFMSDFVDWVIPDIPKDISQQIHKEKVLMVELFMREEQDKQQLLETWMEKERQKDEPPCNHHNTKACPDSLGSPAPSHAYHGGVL
Procedure, shortened: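 FRT cells stably expressing human TMEM16Aabc, whole-cell automated patch clamp with intracellular Ca2+ buffered for ~20% maximal current (EC20). Held at −70 mV, step to +70 mV/ramp at 0.05 Hz, cumulative compound additions of 5 min each. Peak +70 mV current increase expressed as % potentiation of baseline.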

[2] = Log D (pH7.4 shake flask); type: physicochemical; details: pH 7.4; 1-octanol/phosphate buffer shake flask; read-out: mLogD (pH 7.4)

SMILES	EC50 [1] [nM]	logD [2]	activation at 3.33 µM [1] [%]
CC(C)(C)NC(=O)c1cc(NC(=O)Cc2cc(O)c(C(C)(C)C)cc2F)ccn1 [91 of PCT/GB2019/050209, reference compound]	55	> 4.5	–
CC(C)(C#N)NC(=O)c1cc(NC(=O)Cc2ccc(C(C)(C)C)c(O)c2)ccn1 [93.4 of PCT/GB2019/050209, reference compound]	64	> 4.1	476
CC(C#N)NC(=O)c1cc(NC(=O)Cc2cc(O)c(C(C)(C)C)cc2F)ccn1 (centres unmarked) [Example 1.3]	104	3.9	380
CC(C)(O)c1cc(F)c(CC(=O)Nc2ccnc(C(=O)NC3(C(F)(F)F)CC3)c2)cc1O [Example 2, 4-[[2-[2-Fluoro-5-hydroxy-4-(1-hydroxy-1-methyl-ethyl)phenyl]acetyl]amino]-N-[1-(trifluoromethyl)cyclopropyl]pyridine-2-carboxamide]	64	3.1	243
CC(C)(CO)c1cc(F)c(CC(=O)Nc2ccnc(C(=O)NC3(C(F)(F)F)CC3)c2)cc1O [Example 2.6, 4-[[2-[2-Fluoro-5-hydroxy-4-(2-hydroxy-1,1-dimethyl-ethyl)phenyl]acetyl]amino]-N-[1-(trifluoromethyl)cyclopropyl]pyridine-2-carboxamide]	30	3.2	270
CCC(C)(O)c1cc(F)c(CC(=O)Nc2ccnc(C(=O)NC3(C(F)(F)F)CC3)c2)cc1O (centres unmarked) [Example 2.11, 4-[[2-[2-Fluoro-5-hydroxy-4-(1-hydroxy-1-methyl-propyl)phenyl]acetyl]amino]-N-[1-(trifluoromethyl)cyclopropyl]pyridine-2-carboxamide]	64	3.6	390
O=C(Cc1cc(O)c(C2(CO)CCC2)cc1F)Nc1ccnc(C(=O)NC2(C(F)(F)F)CC2)c1 [Example 2.13, 4-[[2-[2-Fluoro-5-hydroxy-4-[1-(hydroxymethyl)cyclobutyl]phenyl]acetyl]amino]-N-[1-(trifluoromethyl)cyclopropyl]pyridine-2-carboxamide]	37	3.3	339
CC(C)(CCO)c1cc(F)c(CC(=O)Nc2ccnc(C(=O)NC3(C(F)(F)F)CC3)c2)cc1O [Example 11, 4-[[2-[2-Fluoro-5-hydroxy-4-(3-hydroxy-1,1-dimethyl-propyl)phenyl]acetyl]amino]-N-[1-(trifluoromethyl)cyclopropyl]pyridine-2-carboxamide]	43	3.7	208
CC(C)(CO)c1cc(Cl)c(CC(=O)Nc2ccnc(C(=O)NC3(C(F)(F)F)CC3)c2)cc1O [Example 14, 4-[[2-[2-Chloro-5-hydroxy-4-(2-hydroxy-1,1-dimethyl-ethyl)phenyl]acetyl]amino]-N-[1-(trifluoromethyl)cyclopropyl]pyridine-2-carboxamide]	33	3.9	490
Cc1cc(C(C)(C)CO)c(O)cc1CC(=O)Nc1ccnc(C(=O)NC2(C(F)(F)F)CC2)c1 [Example 14.1, 4-[[2-[5-Hydroxy-4-(2-hydroxy-1,1-dimethyl-ethyl)-2-methyl-phenyl]acetyl]amino]-N-[1-(trifluoromethyl)cyclopropyl]pyridine-2-carboxamide]	45	3.4	233
CC(C)(CO)c1cc(Cl)c(CC(=O)Nc2ccnc(C(=O)NC3(C(F)F)CC3)c2)cc1O [Example 15.3, 4-[[2-[2-Chloro-5-hydroxy-4-(2-hydroxy-1,1-dimethyl-ethyl)phenyl]acetyl]amino]-N-[1-(difluoromethyl)cyclopropyl]pyridine-2-carboxamide]	36	3.4	250
O=C(Cc1cc(O)c(C(CO)C(F)(F)F)cc1F)Nc1ccnc(C(=O)NC2(C(F)(F)F)CC2)c1 (centres unmarked) [Example 17, 4-[[2-[2-Fluoro-5-hydroxy-4-[2,2,2-trifluoro-1-(hydroxymethyl)ethyl]phenyl]acetyl]amino]N-[1-(trifluoromethyl)cyclopropyl]pyridine-2-carboxamide]	93	3.3	374
